Paper PMC9000575, “Solution Equilibrium Studies on Salicylidene Aminoguanidine Schiff Base Metal Complexes: Impact of the Hybridization with L-Proline on Stability, Redox Activity and Cytotoxicity” (Molecules, 2022)
Read-outs that look alike come from different tables or passages of the source.

What was measured:
[1] = stability constants of Fe(III) complexes by pH-potentiometry; format: physicochemical; conditions: calculated at pH 7.4, cFe = 1 μM, cligand = 10 μM, from overall stability constants reported in Refs. 22, 27, 34
[2] = stability constants of Fe(II) complexes by pH-potentiometry; format: physicochemical; conditions: calculated at pH 7.4, cFe = 1 μM, cligand = 10 μM, from overall stability constants reported in Refs. 22, 27, 34
[3] = test system: Colo-205 human colon adenocarcinoma cells; parameters: method as in PMID 35287037; conditions: Colo-205, 72 h; cited from earlier work
[4] = cited from earlier work
[5] = test system: MRC-5 human embryonal lung fibroblast cells; parameters: method as in PMID 35287037; conditions: MRC-5, 72 h; cited from earlier work
[6] = test system: Colo-320 (doxorubicin-resistant) human colon adenocarcinoma cells; parameters: method as in PMID 35287037; conditions: Colo-320, 72 h; cited from earlier work
[7] = test system: MRC-5 human embryonal lung fibroblast cells; assay: MTT cytotoxicity test; format: cell-based; conditions: MRC-5, 72 h
Description: (§1) All cell culture reagents were obtained from Sigma-Aldrich and plastic ware from Sarstedt (Nümbrecht, Germany). Human colon Colo-205 (chemo-sensitive) and Colo-320 (doxorubicin-resistant) adenocarcinoma and MRC-5 human embryonal lung fibroblast cell lines were purchased from LGC Promochem, Teddington, UK. The colon adenocarcinoma cells were cultured in Roswell Park Memorial Institute (RPMI) 1640 medium supplemented with 10% heat-inactivated fetal bovine serum, 2 mM L-glutamine, 1 mM sodium pyruvate and 100 mM HEPES. The MRC-5 cell line was cultured in Eagle’s Minimal Essential Medium (EMEM, Sigma-Aldrich, St. Louis, MO, USA) supplemented with a non-essential amino acid (NEAA) mixture (Sigma-Aldrich, St. Louis, MO, USA) a selection of vitamins, 10% heat-inactivated foetal bovine serum (FBS), 2 mM L-glutamine (Sigma-Aldrich, St. Louis, MO, USA), 1 mM Na-pyruvate (Sigma-Aldrich, St. Louis, MO, USA), nystatin (Sigma-Aldrich, St. Louis, MO, USA) and a penicillin-streptomycin mixture (Sigma-Aldrich, St. Louis, MO, USA) in concentrations of 100 U/L and 10 mg/L, respectively. The cells were incubated at 37 °C, in a 5% CO2, 95% air atmosphere. All cell lines were detached with Trypsin-Versene® (EDTA) solution for 5 min at 37 °C.
(§2) The tested compounds were dissolved in 90% (v/v) DMSO/H2O using 8 mM concentration, […] in the final samples the DMSO content was always lower than 1%. Then stock solutions were diluted in complete culture medium, and two-fold serial dilutions of compounds were prepared in 100 μL of the medium, horizontally. The semi-adherent colon adenocarcinoma cells were treated with Trypsin-Versene (EDTA) solution. They were adjusted to a density of 1 × 10^4 cells in 100 μL of RPMI 1640 or EMEM medium and were added to each well, with the exception of the medium control wells. The final volume of the wells containing compounds and cells was 200 μL. The plates containing Colo-205, Colo-320 or MRC-5 cells were incubated at 37 °C for 72 h; at the end of the incubation period, 20 μL of MTT solution (from a stock solution of 5 mg/mL) were added to each well. After incubation at 37 °C for 4 h, 100 μL of SDS solution (10% in 0.01 M HCI) were added to each well, and the plates were further incubated at 37 °C overnight. Cell growth was determined by measuring the optical density (OD) at 540/630 nm with a Multiskan EX plate reader (Thermo Labsystems, Cheshire, WA, USA). Inhibition of the cell growth (expressed as IC50: inhibitory concentration that reduces by 50% the growth of the cells exposed to the tested compounds) was determined from the sigmoid curve where 100 − ((ODsample − ODmedium control)/(ODcell control − ODmedium control)) × 100 values were plotted against the logarithm of compound concentrations. Curves were fitted by GraphPad Prism software (2021, Graphpad Software, San Diego, CA, USA) using the sigmoidal dose–response model (comparing variable and fixed slopes). The IC50 values were obtained from at least three independent experiments.

[8] = test system: Colo-205 human colon adenocarcinoma cells; assay: MTT cytotoxicity test; format: cell-based; conditions: Colo-205, 72 h
Description: as §1, §2

[9] = test system: Colo-320 (doxorubicin-resistant) human colon adenocarcinoma cells; assay: MTT cytotoxicity test; format: cell-based; conditions: Colo-320, 72 h
Description: as §1, §2

[10] = literature pKa values of analogous (thio)semicarbazones; format: physicochemical; conditions: from literature pKa values (refs 22, 23)
[11] = pH 7.4; cited from earlier work
[12] = 30% (v/v) DMSO/H2O; cited from earlier work

Row | Compound | pFe(III)* (−logΣ[Fe(III)i(OH)j]) [1] | pFe(II) (−log[Fe(II)]) [2] | IC50 [3] [µM] | E1/2 of the Fe(III)/Fe(II) redox couple of the iron complexes [4] | IC50 [5] [µM] | IC50 [6] [µM] | IC50 [7] [µM] | IC50 [8] [µM] | IC50 [9] [µM] | E1/2 of the Fe(III)/Fe(II) redox couple of the iron complexes ([4]; STSC complexes, 'as it was found', no reference given) [V vs. NHE] | fraction present in neutral form at pH 7.4 [10] [%] | logD7.4 [11] | pK1 [12] | pK2 [12]
1 | NC(=S)NN=Cc1ncccc1N [Triapine, 3-aminopyridine-2-carbaldehyde thiosemicarbazone] | 7.3 | 11.6 | 3.28 ± 0.63 | +0.08 V vs. NHE | 31.4 ± 9.2 | 2.17 ± 0.15 | – | – | – | – | – | – | – | –
2 | [Cl][Cu][Cl] [CuCl2, reference compound] | – | – | – | – | – | – | 43.9 ± 0.3 | 44.1 ± 0.4 | 48.7 ± 0.4 | – | – | – | – | –
3 | NC(=S)N/N=C/c1ccccc1O [STSC, salicylaldehyde TSC] | 8.4 | 8.3 | 69.7 ± 1.9 | – | 88 ± 19 | 52.2 ± 6.8 | – | – | – | −0.14 | 97 | +1.59 | 8.89 | 12.59
4 | NC(=O)N/N=C/c1ccccc1O [SSC, salicylaldehyde semicarbazone] | – | – | – | – | – | – | – | – | – | – | 100 | +0.94 | 9.32 | > 12.8
